Laboratory results taken from publication PMC11018007, “Synthesis, carbonic anhydrase inhibition studies and modelling investigations of phthalimide–hydantoin hybrids” (Journal of Enzyme Inhibition and Medicinal Chemistry, 2024).

What was measured:
[1] = stopped-flow CO2 hydrase assay; assay type: biochemical, Homo sapiens; conditions: read-out: KI (μM) ^a / hCA I
From the text: (§1) stopped-flow CO2 hydrase assay on hCA II

[2] = molecular target: T1, hCA I (Homo sapiens, UniProt P00915); experiment: stopped-flow CO2 hydrase assay; assay type: biochemical
T1 construct: gene CA1; recombinant from plasmid pACA/hCA I, E. coli BL21 (DE3)
T1 sequence (P00915 2-261): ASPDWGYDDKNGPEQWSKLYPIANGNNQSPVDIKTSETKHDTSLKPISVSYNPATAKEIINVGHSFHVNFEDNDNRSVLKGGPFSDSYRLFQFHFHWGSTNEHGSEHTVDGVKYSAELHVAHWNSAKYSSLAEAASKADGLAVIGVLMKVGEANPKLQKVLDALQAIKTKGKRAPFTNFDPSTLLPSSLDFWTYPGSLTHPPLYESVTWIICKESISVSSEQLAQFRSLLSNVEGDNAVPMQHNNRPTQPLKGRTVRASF
From the text: stopped-flow CO2 hydrase assay on hCA I

[3] = molecular target: T2, hCA VII (Homo sapiens, UniProt P43166); experiment: stopped-flow CO2 hydrase assay; assay type: biochemical
T2 construct: gene CA7; in-house recombinant protein; construct not described here
T2 sequence (P43166 whole entry): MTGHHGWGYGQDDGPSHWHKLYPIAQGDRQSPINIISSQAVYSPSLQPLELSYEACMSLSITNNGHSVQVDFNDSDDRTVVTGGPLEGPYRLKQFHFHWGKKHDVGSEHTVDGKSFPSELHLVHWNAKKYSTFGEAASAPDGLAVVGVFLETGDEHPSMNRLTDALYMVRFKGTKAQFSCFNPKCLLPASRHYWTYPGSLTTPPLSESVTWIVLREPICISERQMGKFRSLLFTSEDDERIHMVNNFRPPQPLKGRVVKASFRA
From the text: stopped-flow CO2 hydrase assay on hCA VII

[4] = molecular target: T3, hCA IX (Homo sapiens, UniProt Q16790); experiment: stopped-flow CO2 hydrase assay; assay type: biochemical
T3 construct: gene CA9
From the text: stopped-flow CO2 hydrase assay on hCA IX

[5] = molecular target: T4, hCA VI (Homo sapiens, UniProt P23280); experiment: stopped-flow CO2 hydrase assay; assay type: biochemical
T4 construct: gene CA6; secreted isoform; in-house recombinant protein; construct not described here
T4 sequence (P23280 18-308): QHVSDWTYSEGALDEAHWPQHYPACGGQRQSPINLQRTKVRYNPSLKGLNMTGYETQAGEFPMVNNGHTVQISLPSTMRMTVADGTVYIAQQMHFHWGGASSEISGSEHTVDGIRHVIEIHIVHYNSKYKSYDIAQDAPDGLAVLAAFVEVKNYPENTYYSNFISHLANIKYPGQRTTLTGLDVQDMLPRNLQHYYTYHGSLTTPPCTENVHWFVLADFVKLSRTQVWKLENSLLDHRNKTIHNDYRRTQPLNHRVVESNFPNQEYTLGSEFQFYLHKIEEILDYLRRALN
From the text: stopped-flow CO2 hydrase assay on hCA VI

[6] = molecular target: T5, hCA II (Homo sapiens, UniProt P00918); experiment: stopped-flow CO2 hydrase assay; assay type: biochemical
T5 construct: gene CA2; recombinant from plasmid pACA/hCA II, E. coli BL21 (DE3)
From the text: as §1

Compound | Ki [1] | Ki [2] | Ki [3] | Ki [4] | Ki [5] | Ki [6]
O=C1CN(N2C(=O)c3ccccc3C2=O)C(=O)N1Cc1ccccc1 [6a, 2-(3-Benzyl-2,4-dioxoimidazolidin-1-yl)isoindoline-1,3-dione] | > 100 µM | > 100 µM | 33.7 µM | 3.73 µM | 57.7 µM | 
O=C1CN(NC(=O)c2cc([N+](=O)[O-])ccc2C(=O)O)C(=O)N1 [compound 5, 2-((2,4-Dioxoimidazolidin-1-yl)carbamoyl)-4-nitrobenzoic acid] |  | > 100 µM | 13.9 µM | 4.06 µM | 10.5 µM | 58.6 µM
N#Cc1ccc(CN2C(=O)CN(N3C(=O)c4ccc([N+](=O)[O-])cc4C3=O)C2=O)cc1 [6f, 4-((3-(5-Nitro-1,3-dioxoisoindolin-2-yl)-2,5-dioxoimidazolidin-1-yl)methyl)benzonitrile] | > 100 µM | > 100 µM | 50.5 µM | 6.49 µM | 64.3 µM | 
O=C1CN(N2C(=O)c3ccc([N+](=O)[O-])cc3C2=O)C(=O)N1Cc1ccc([N+](=O)[O-])cc1 [6d, 5-Nitro-2-(3-(4-nitrobenzyl)-2,4-dioxoimidazolidin-1-yl)isoindoline-1,3-dione] | > 100 µM | > 100 µM | 26.3 µM | 4.58 µM | 49.8 µM | 
N#Cc1ccc(CN2C(=O)CN(N3C(=O)c4ccccc4C3=O)C2=O)cc1 [6e, 4-((3-(1,3-Dioxoisoindolin-2-yl)-2,5-dioxoimidazolidin-1-yl)methyl)benzonitrile] | > 100 µM | > 100 µM | 59.1 µM | 4.82 µM | 48.5 µM | 
O=C1CN(N2C(=O)c3ccccc3C2=O)C(=O)N1Cc1ccc([N+](=O)[O-])cc1 [6c, 2-(3-(4-Nitrobenzyl)-2,4-dioxoimidazolidin-1-yl)isoindoline-1,3-dione] | > 100 µM | > 100 µM | 37.6 µM | 5.68 µM | 50.2 µM | 
O=C1CN(N2C(=O)c3ccc([N+](=O)[O-])cc3C2=O)C(=O)N1Cc1ccccc1 [6b, 2-(3-Benzyl-2,4-dioxoimidazolidin-1-yl)-5-nitroisoindoline-1,3-dione] | > 100 µM | > 100 µM | 45.9 µM | 2.73 µM | 40.2 µM | 
O=C1CN(N2C(=O)c3ccc([N+](=O)[O-])cc3C2=O)C(=O)N1 [3b, Potassium 3-(5-nitro-1,3-dioxoisoindolin-2-yl)-2,5-dioxoimidazolidin-1-ide] |  | > 100 µM | 0.163 µM | 0.488 µM | 0.701 µM | 8.99 µM
O=C1CN(N2C(=O)c3ccccc3C2=O)C(=O)N1 [3a, Potassium 3-(1,3-dioxoisoindolin-2-yl)-2,5-dioxoimidazolidin-1-ide] |  | > 100 µM | 0.075 µM | 0.331 µM | 0.405 µM | 6.94 µM
